Assay results reported in ChEMBL document CHEMBL1201862, “PubChem BioAssay data set” (2004).
Active and inactive are the calls of the source.

What was measured:
[1] = target: T1, Replicative DNA helicase DnaB (Mycobacterium tuberculosis, UniProt P9WMR3); experiment: DnaB intein splicing inhibitors, dose response, biochemical, cell-free fluorescence (AID 449749); format: functional
T1 sequence (P9WMR3 whole entry): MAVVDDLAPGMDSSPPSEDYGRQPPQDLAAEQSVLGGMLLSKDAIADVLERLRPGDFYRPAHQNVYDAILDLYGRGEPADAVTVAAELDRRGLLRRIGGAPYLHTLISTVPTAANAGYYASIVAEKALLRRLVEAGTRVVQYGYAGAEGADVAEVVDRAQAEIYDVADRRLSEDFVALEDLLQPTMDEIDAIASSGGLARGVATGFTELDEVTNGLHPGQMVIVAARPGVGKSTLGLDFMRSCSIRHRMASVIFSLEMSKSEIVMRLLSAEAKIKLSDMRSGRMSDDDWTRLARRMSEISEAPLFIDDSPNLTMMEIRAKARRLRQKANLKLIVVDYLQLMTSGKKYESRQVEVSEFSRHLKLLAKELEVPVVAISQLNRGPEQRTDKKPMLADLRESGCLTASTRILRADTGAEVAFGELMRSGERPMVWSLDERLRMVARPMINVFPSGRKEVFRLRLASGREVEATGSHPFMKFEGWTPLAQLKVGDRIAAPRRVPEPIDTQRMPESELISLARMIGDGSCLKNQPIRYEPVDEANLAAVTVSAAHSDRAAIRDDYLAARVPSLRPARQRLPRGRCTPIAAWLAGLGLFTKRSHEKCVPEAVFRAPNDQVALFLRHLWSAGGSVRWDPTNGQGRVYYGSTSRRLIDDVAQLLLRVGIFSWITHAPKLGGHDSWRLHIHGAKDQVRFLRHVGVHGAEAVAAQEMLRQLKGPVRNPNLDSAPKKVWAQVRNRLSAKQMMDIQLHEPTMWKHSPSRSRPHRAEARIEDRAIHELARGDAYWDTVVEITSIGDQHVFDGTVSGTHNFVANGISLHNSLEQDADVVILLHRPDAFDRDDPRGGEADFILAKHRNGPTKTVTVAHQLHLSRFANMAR

[2] = target: T2, Protein RecA (Mycobacterium tuberculosis, UniProt P9WHJ3); experiment: Fluorescence Cell-Free Homogeneous Dose Retest to Identify Inhibitors of RecA-Intein Splicing Activity. [Related pubchem assays (depositor defined):AID2097, AID2223, AID489010, AID492950]; format: functional
T2 sequence (P9WHJ3 whole entry): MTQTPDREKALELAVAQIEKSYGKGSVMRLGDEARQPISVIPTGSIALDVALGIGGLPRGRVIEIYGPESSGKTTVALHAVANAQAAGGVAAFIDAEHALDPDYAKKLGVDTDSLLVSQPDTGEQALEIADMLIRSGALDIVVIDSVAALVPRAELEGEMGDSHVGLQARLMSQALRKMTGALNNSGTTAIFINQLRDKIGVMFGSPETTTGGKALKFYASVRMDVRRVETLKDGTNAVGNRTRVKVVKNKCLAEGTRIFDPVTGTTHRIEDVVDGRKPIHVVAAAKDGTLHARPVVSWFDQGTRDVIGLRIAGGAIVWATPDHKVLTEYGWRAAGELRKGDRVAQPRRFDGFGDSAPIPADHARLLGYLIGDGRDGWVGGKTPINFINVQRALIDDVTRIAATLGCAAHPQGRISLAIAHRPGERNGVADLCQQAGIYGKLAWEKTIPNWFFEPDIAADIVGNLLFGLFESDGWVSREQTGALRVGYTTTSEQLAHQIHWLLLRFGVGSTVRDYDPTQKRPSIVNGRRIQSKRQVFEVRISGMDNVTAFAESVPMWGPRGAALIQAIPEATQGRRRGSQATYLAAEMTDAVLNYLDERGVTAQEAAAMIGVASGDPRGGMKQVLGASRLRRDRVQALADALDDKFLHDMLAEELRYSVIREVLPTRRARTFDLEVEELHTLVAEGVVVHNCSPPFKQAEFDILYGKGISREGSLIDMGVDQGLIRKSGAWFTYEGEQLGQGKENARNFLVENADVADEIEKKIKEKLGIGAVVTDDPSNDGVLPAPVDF

[3] = target: SWI/SNF-related matrix-associated actin-dependent regulator of chromatin subfamily A member 2 (Homo sapiens, UniProt P51531); experiment: Luminescence-based cell-based high throughput dose response assay to identify activators of the function of SWI/SNF related, matrix associated, actin dependent regulator of chromatin, subfamily a, member 2 (SMARCA2, BRM).; format: functional
[4] = target: Tyrosyl-DNA phosphodiesterase 2 (Homo sapiens, UniProt O95551); experiment: potency against TDP2 phosphodiesterase activity – biochemical, epi absorbance, IC50, dose response (AID 743297)
[5] = Trypanosoma cruzi growth suppression in host cells – NIH3T3 host cells, beta-gal luminescence, confirmation (AID 2044); format: functional, cell-based;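 also: intracellular parasites grown in NIH/3T3 mouse fibroblasts as host cells; luminescent beta-galactosidase reporter signal from transgenic T. cruzi replicating inside host cells; inhibitors lower the luminescence signal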
[6] = target: Heat shock protein HSP 90-alpha (Homo sapiens, UniProt P07900); format: functional, organism-based
[7] = NIH3T3 cell viability loss – ATP luminescence, mouse fibroblasts, counter-screen, dose response (AID 2010); format: functional, cell-based;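 also: cells exposed to compound for about 90 hours before reading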
[8] = loss of viability in HepG2 cells – cell-based, CellTiter-Glo, cherry-picked, cytotoxicity control for Shn3 inhibitor project, dose response (AID 624134); format: functional
[9] = non-specific 3'UTR reporter inhibition in Clone20-Shn3RL – cell-based, Renilla luciferase, cherry-picked, counter-screen for Shn3 inhibitor project, dose response (AID 624133); format: functional
[10] = test system: HEK293; experiment: EBV LMP1 TES2 canonical NF-kB signalling blockers – cell-based, HEK293, luciferase, cherry-pick, dose response (AID 588343); format: functional; conditions: Homo sapiens
[11] = test system: HEK293; experiment: HEK293T cell viability loss, resazurin readout – resazurin fluorescence, cytotoxicity control for NF-kB activator project, SAR follow-up (AID 493251); format: functional, cell-based; conditions: Homo sapiens
[12] = target: Caspase-7 (Homo sapiens, UniProt P55210); experiment: activation of caspase-7 zymogen – biochemical, absorbance, counter-screen for procaspase-3 activator project, dose response (AID 489013)
Sequence of Caspase-7 (P55210 24-198 limits assumed): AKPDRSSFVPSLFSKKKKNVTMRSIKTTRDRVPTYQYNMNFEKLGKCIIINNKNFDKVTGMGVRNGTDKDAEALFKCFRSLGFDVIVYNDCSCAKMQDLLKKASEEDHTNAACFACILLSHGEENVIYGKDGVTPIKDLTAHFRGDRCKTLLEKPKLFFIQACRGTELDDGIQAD
Sequence of Caspase-7 (P55210 207-303 limits assumed): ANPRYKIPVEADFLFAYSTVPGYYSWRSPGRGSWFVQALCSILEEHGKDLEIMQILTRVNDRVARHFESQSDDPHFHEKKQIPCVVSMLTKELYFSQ

Sequence of SWI/SNF-related matrix-associated actin-dependent regulator of chromatin subfamily A member 2 (P51531 whole entry): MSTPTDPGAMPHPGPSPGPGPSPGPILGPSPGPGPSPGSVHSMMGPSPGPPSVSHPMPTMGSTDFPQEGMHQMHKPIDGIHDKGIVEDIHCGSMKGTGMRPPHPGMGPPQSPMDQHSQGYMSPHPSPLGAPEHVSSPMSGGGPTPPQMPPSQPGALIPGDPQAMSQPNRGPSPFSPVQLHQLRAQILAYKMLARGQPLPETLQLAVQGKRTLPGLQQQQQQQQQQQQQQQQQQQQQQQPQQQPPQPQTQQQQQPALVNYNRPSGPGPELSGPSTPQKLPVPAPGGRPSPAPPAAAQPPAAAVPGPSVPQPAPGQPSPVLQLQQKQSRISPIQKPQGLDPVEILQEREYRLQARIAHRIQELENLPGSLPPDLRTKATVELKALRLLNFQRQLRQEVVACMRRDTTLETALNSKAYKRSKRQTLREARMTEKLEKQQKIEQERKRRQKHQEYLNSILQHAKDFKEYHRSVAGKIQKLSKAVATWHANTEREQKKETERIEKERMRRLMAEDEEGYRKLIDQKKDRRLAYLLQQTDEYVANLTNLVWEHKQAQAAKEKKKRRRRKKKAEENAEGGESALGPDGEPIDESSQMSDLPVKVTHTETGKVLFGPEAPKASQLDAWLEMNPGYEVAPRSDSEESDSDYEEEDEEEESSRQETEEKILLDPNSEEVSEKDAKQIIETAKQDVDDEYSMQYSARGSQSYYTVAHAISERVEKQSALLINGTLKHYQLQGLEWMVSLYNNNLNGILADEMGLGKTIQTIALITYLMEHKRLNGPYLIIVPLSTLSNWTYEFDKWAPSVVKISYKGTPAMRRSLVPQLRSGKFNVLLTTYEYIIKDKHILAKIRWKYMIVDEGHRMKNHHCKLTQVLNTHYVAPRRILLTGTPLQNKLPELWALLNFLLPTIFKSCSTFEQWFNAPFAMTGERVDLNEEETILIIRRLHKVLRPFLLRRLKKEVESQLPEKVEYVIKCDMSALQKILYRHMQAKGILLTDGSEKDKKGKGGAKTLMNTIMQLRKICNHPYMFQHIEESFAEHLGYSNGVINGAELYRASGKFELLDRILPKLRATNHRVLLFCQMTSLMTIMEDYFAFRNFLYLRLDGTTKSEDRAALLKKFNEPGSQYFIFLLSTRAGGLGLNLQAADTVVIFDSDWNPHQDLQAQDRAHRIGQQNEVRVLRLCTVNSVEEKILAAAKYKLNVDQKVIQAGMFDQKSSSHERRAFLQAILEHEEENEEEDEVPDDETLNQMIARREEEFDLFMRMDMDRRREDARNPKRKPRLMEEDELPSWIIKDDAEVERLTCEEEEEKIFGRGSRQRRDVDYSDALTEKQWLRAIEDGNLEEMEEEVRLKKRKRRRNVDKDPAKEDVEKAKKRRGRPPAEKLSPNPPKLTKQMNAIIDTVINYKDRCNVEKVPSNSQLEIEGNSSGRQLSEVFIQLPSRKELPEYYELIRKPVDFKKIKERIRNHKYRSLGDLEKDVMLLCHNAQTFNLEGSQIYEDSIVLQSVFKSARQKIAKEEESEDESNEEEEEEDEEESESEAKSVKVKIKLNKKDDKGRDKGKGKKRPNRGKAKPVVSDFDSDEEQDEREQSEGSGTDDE
Sequence of Tyrosyl-DNA phosphodiesterase 2 (O95551 whole entry): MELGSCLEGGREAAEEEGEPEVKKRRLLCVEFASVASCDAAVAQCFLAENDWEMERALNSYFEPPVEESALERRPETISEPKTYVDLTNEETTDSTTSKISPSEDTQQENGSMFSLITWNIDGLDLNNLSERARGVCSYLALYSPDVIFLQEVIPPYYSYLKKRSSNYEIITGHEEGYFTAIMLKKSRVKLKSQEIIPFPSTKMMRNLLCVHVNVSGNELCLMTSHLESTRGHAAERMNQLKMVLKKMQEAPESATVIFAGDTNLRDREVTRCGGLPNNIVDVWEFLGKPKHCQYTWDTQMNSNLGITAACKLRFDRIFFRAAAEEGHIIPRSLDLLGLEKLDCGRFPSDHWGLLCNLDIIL

With `CCc1ccc2c(c1)C(NC(C)=O)C(=O)N2CCN1CCOCC1` (stereo not drawn) the AC50 [1] was 22.3 µM (active) and the EC50 [2] was 16.8 µM (active).

For `COc1ccc2noc3c2c1C(=O)c1ccccc1-3`, the EC50 [3] was > 91.2 µM (inactive), the IC50 [4] was 65.7 µM (inactive) and the AC50 [1] was 1.18 µM (inconclusive). For the same compound, the EC50 [2] was 3.61 µM (active).

In the case of `CCCCC(=O)NC(c1ccco1)c1cc(Cl)c2cccnc2c1O` (stereo not drawn), the EC50 [5] is reported as 1.91 µM (active), the AC50 [6] is reported as 4.37 µM (active) and the EC50 [7] is reported as 3.65 µM (active).

For `CCCCC(=O)NC(c1ccc(Cl)cc1)c1ccc2cccnc2c1O` (stereo not drawn), the AC50 [8] was 1.71 µM (active), the AC50 [9] was 0.909 µM (active) and the AC50 [10] was 4.59 µM (active). The EC50 [5] was 0.268 µM (active), the AC50 [6] was 15 µM (active) and the IC50 [11] was 23.3 µM (inactive). For the same compound, the EC50 [7] was 0.617 µM (active).

With `O=C(N/N=C/c1ccccc1O)/C(O)=C\C1=NC2(CCCC2)Cc2ccccc21` the AC50 [10] was 33.4 µM (active) and the EC50 [12] was > 85.3 µM (inactive).
